The values below come from patent publication US8623859B2, “Bradykinin B1 antagonists” (Evotec AG, priority 2008, dated 2014).

The structures appear in SMILES notation. Structures can show the parent of a compound that is named as a salt.

For this test, the target named is T1, human B1 (Homo sapiens, UniProt P46663).
T1 construct: host or cells: CHO-K1
T1 sequence (P46663 1-353): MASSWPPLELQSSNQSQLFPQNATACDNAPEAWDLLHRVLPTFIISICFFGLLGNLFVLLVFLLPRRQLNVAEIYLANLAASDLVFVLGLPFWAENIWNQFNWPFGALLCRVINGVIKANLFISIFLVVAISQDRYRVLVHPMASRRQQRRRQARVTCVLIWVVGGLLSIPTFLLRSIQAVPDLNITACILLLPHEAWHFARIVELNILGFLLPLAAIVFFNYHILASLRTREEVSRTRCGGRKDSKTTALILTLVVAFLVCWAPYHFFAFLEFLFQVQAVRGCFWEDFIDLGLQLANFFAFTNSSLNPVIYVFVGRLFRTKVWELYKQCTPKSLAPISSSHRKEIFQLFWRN
The experiment in a line: Calcium flux assay for Bradykinin B1 antagonist, CHO-K1 cell line expressing human B1. It counts as cell-based. The conditions noted are these: CHO-K1 cells expressing human B1, agonist Lys-(Des-Arg)-Bradykinin, read-out: Potency (IC50 value against human B1). The procedure, abridged: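 CHO-K1 cells expressing human B1, loaded with 5 μM Fluo-4AM (2 h, 37° C) in HEPES buffer pH 7.4 with probenecid and 0.1% BSA, were preincubated 30 min at 25° C with compound (8 concentrations, triplicate, 1% DMSO) before B1 agonist addition. Ca2+ fluorescence monitored at 538 nm; background-normalized integrated values plotted against log antagonist concentration.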
On the technique in general: A change in cytosolic calcium serves as a functional read-out for many receptors and channels.
By IC50 is commonly meant the concentration that inhibits the measured activity by half. With `COc1cc(C)c(S(=O)(=O)N(C)Cc2nc(C(=O)N(C)Cc3ccc(CN4CCC(OC)C4)cc3)co2)c(C)c1` (centres unmarked) [Ex 169, 2-({[(4-Methoxy-2,6-dimethylphenyl)sulfonyl](methyl)amino}methyl)-N-{4-[(3-methoxypyrrolidin-1-yl)methyl]benzyl}-N-methyl-1,3-oxazole-4-carboxamide], the IC50 is under 10 nM.

For the molecule `COc1cc(C)c(S(=O)(=O)N(C)Cc2nc(C(=O)N(C)Cc3ccc(CN4CCC(NC(C)=O)C4)cc3)co2)c(C)c1` (centres unmarked) [Ex 170, N-(4-{[3-(Acetylamino)pyrrolidin-1-yl]methyl}benzyl)-2-({[(4-methoxy-2,6-dimethylphenyl)sulfonyl](methyl)amino}methyl)-N-methyl-1,3-oxazole-4-carboxamide], the IC50 was 10 to 100 nM.

For the molecule `COc1cc(C)c(S(=O)(=O)N(C)Cc2nc(C(=O)N(C)Cc3ccc(CN4CCC(C(=O)N(C)C)C4)cc3)co2)c(C)c1` (centres unmarked) [Ex 171, N-(4-{[3-(Dimethylcarbamoyl)pyrrolidin-1-yl]methyl}benzyl)-2-({[(4-methoxy-2,6-dimethylphenyl)sulfonyl](methyl)amino}methyl)-N-methyl-1,3-oxazole-4-carboxamide], the IC50 is under 10 nM.

Consider `COc1cc(C)c(S(=O)(=O)N(C)Cc2nc(C(=O)N(C)Cc3ccc(CN4CC(O)C4)cc3)co2)c(C)c1` [Ex 172, N-{4-[(3-Hydroxyazetidin-1-yl)methyl]benzyl}-2-({[(4-methoxy-2,6-dimethylphenyl)sulfonyl](methyl)amino}methyl)-N-methyl-1,3-oxazole-4-carboxamide], for which the half-maximal inhibitory concentration (IC50) fell in the range of 10 to 100 nM.

In the case of `COc1cc(C)c(S(=O)(=O)N(C)Cc2nc(C(=O)N(C)Cc3ccc(CN4CC(OC)C4)cc3)co2)c(C)c1` [Ex 173, N-{4-[(3-Methoxyazetidin-1-yl)methyl]benzyl}-2-({[(4-methoxy-2,6-dimethylphenyl)sulfonyl](methyl)amino}methyl)-N-methyl-1,3-oxazole-4-carboxamide], the IC50 lay in the range of 10 to 100 nM.

Regarding `COc1cc(C)c(S(=O)(=O)N(C)Cc2nc(C(=O)N3CCN(CCCN4CCCC4)CC3)co2)c(C)c1` [Ex 174, 4-Methoxy-N,2,6-trimethyl-N-[(4-{[4-(3-pyrrolidin-1-ylpropyl)piperazin-1-yl]carbonyl}-1,3-oxazol-2-yl)methyl]benzenesulfonamide], the concentration for half-maximal inhibition (IC50) was under 10 nM.

As to `COc1cc(C)c(S(=O)(=O)N(C)Cc2nc(C(=O)N3CCN(CC4CCN(C)CC4)CC3)co2)c(C)c1` [Ex 175, 4-Methoxy-N,2,6-trimethyl-N-{[4-({4-[(1-methylpiperidin-4-yl)methyl]piperazin-1-yl}carbonyl)-1,3-oxazol-2-yl]methyl}benzenesulfonamide], the half-maximal inhibitory concentration (IC50) is under 10 nM.

Take `COc1cc(C)c(S(=O)(=O)N(Cc2nc(C(=O)N(C)Cc3ccc(CN4CCC(O)C4)cc3)co2)C2CC2)c(C)c1` (centres unmarked) [Ex 176, 2-({Cyclopropyl[(4-methoxy-2,6-dimethylphenyl)sulfonyl]amino}methyl)-N-{4-[(3-hydroxypyrrolidin-1-yl)methyl]benzyl}-N-methyl-1,3-oxazole-4-carboxamide]: the IC50 was under 10 nM.

In the case of `COc1cc(C)c(S(=O)(=O)N(C)Cc2nc(C(=O)N(C)Cc3ccc(CN4CCC(N(C)C)C4)cc3)co2)c(C)c1` (centres unmarked) [Ex 177, N-(4-{[3-(Dimethylamino)pyrrolidin-1-yl]methyl}benzyl)-2-({[(4-methoxy-2,6-dimethylphenyl)sulfonyl](methyl)amino}methyl)-N-methyl-1,3-oxazole-4-carboxamide], the IC50 lay in the range of 10 to 100 nM.

For `COc1cc(C)c(S(=O)(=O)N(C)Cc2nc(C(=O)N(C)Cc3ccc(CN4CCC(O)C4)cc3)co2)c(C)c1` (centres unmarked) [Ex 178, N-{4-[(3-Hydroxypyrrolidin-1-yl)methyl]benzyl}-2-({[(4-methoxy-2,6-dimethylphenyl)sulfonyl](methyl)amino}methyl)-N-methyl-1,3-oxazole-4-carboxamide], the IC50 is under 10 nM.

For the molecule `COc1cc(C)c(S(=O)(=O)N(C)Cc2nc(C(=O)N(C)Cc3ccc(CN4CCCC(O)C4)cc3)co2)c(C)c1` (centres unmarked) [Ex 179, N-{4-[(3-Hydroxypiperidin-1-yl)methyl]benzyl}-2-({[(4-methoxy-2,6-dimethylphenyl)sulfonyl](methyl)amino}methyl)-N-methyl-1,3-oxazole-4-carboxamide], the IC50 was under 10 nM.

For `COc1cc(C)c(S(=O)(=O)N(Cc2nc(C(=O)N(C)Cc3ccc(CN4CCCC(O)C4)cc3)co2)C2CC2)c(C)c1` (centres unmarked) [Ex 180, 2-({Cyclopropyl[(4-methoxy-2,6-dimethylphenyl)sulfonyl]amino}methyl)-N-{4-[(3-hydroxypiperidin-1-yl)methyl]benzyl}-N-methyl-1,3-oxazole-4-carboxamide], the IC50 is under 10 nM.

On to `COc1cc(C)c(S(=O)(=O)N(Cc2nc(C(=O)N(C)Cc3ccc(CN4CCC(O)CC4)cc3)co2)C2CC2)c(C)c1` [Ex 181, 2-({Cyclopropyl[(4-methoxy-2,6-dimethylphenyl)sulfonyl]amino}methyl)-N-{4-[(4-hydroxypiperidin-1-yl)methyl]benzyl}-N-methyl-1,3-oxazole-4-carboxamide], for which the IC50 is under 10 nM.

Turning to `COc1cc(C)c(S(=O)(=O)N(Cc2nc(C(=O)N(C)Cc3ccc(CN4CCC(OC)C4)cc3)co2)C2CC2)c(C)c1` (centres unmarked) [Ex 182, 2-({Cyclopropyl[(4-methoxy-2,6-dimethylphenyl)sulfonyl]amino}methyl)-N-{4-[(3-methoxypyrrolidin-1-yl)methyl]benzyl}-N-methyl-1,3-oxazole-4-carboxamide], the IC50 is under 10 nM.

In the case of `COc1cc(C)c(S(=O)(=O)N(Cc2nc(C(=O)N(C)Cc3ccc(CN4CCC(OC)CC4)cc3)co2)C2CC2)c(C)c1` [Ex 183, 2-({Cyclopropyl[(4-methoxy-2,6-dimethylphenyl)sulfonyl]amino}methyl)-N-{4-[(4-methoxypiperidin-1-yl)methyl]benzyl}-N-methyl-1,3-oxazole-4-carboxamide], the IC50 was under 10 nM.

With `COc1cc(C)c(S(=O)(=O)N(Cc2nc(C(=O)N(C)Cc3ccc(CN4CCCC(OC)C4)cc3)co2)C2CC2)c(C)c1` (centres unmarked) [Ex 184, 2-({Cyclopropyl[(4-methoxy-2,6-dimethylphenyl)sulfonyl]amino}methyl)-N-{4-[(3-methoxypiperidin-1-yl)methyl]benzyl}-N-methyl-1,3-oxazole-4-carboxamide], the IC50 is under 10 nM.

In the case of `COc1cc(C)c(S(=O)(=O)N(Cc2nc(C(=O)N(C)Cc3ccc(CN4CCC(NC(C)=O)C4)cc3)co2)C2CC2)c(C)c1` (centres unmarked) [Ex 185, N-(4-{[3-(Acetylamino)pyrrolidin-1-yl]methyl}benzyl)-2-({cyclopropyl[(4-methoxy-2,6-dimethylphenyl)sulfonyl]amino}methyl)-N-methyl-1,3-oxazole-4-carboxamide], the IC50 is under 10 nM.

Consider `COc1cc(C)c(S(=O)(=O)N(Cc2nc(C(=O)N(C)Cc3ccc(CN4CCC(C(=O)N(C)C)C4)cc3)co2)C2CC2)c(C)c1` (centres unmarked) [Ex 186, 2-({Cyclopropyl[(4-methoxy-2,6-dimethylphenyl)sulfonyl]amino}methyl)-N-(4-{[3-(dimethylcarbamoyl)pyrrolidin-1-yl]methyl}benzyl)-N-methyl-1,3-oxazole-4-carboxamide], for which the IC50 was under 10 nM.

For `COc1cc(C)c(S(=O)(=O)N(Cc2nc(C(=O)N(C)Cc3ccc(CN4CC(OC)C4)cc3)co2)C2CC2)c(C)c1` [Ex 187, 2-({Cyclopropyl[(4-methoxy-2,6-dimethylphenyl)sulfonyl]amino}methyl)-N-{4-[(3-methoxyazetidin-1-yl)methyl]benzyl}-N-methyl-1,3-oxazole-4-carboxamide], the IC50 was under 10 nM.

With `COc1cc(C)c(S(=O)(=O)N(Cc2nc(C(=O)N(C)Cc3ccc(CN4CC(O)C4)cc3)co2)C2CC2)c(C)c1` [Ex 188, 2-({Cyclopropyl[(4-methoxy-2,6-dimethylphenyl)sulfonyl]amino}methyl)-N-{4-[(3-hydroxyazetidin-1-yl)methyl]benzyl}-N-methyl-1,3-oxazole-4-carboxamide], the concentration for half-maximal inhibition (IC50) lay within 10 to 100 nM.

For the molecule `COc1cc(C)c(S(=O)(=O)N(Cc2nc(C(=O)N(C)Cc3ccc(CN4CC(O)C(O)C4)cc3)co2)C2CC2)c(C)c1` (centres unmarked) [Ex 189, 2-({Cyclopropyl[(4-methoxy-2,6-dimethylphenyl)sulfonyl]amino}methyl)-N-{4-[(3,4-dihydroxypyrrolidin-1-yl)methyl]benzyl}-N-methyl-1,3-oxazole-4-carboxamide], the concentration for half-maximal inhibition (IC50) is under 10 nM.

As to `COc1cc(C)c(S(=O)(=O)N(Cc2nc(C(=O)N(C)Cc3ccc(CN4CCC(N(C)C)C4)cc3)co2)C2CC2)c(C)c1` (centres unmarked) [Ex 190, 2-({Cyclopropyl[(4-methoxy-2,6-dimethylphenyl)sulfonyl]amino}methyl)-N-(4-{[3-(dimethylamino)pyrrolidin-1-yl]methyl}benzyl)-N-methyl-1,3-oxazole-4-carboxamide], the IC50 was under 10 nM.

In the case of `COc1cc(C)c(S(=O)(=O)N(Cc2nc(C(=O)N3CCN(CC4CCN(C)CC4)CC3)co2)C2CC2)c(C)c1` [Ex 191, N-Cyclopropyl-4-methoxy-2,6-dimethyl-N-{[4-({4-[(1-methylpiperidin-4-yl)methyl]piperazin-1-yl}carbonyl)-1,3-oxazol-2-yl]methyl}benzenesulfonamide trifluoroacetate trifluoroacetate], the IC50 was under 10 nM.
